Source: paper PMC4019984, “Kinase and channel activity of TRPM6 are co-ordinated by a dimerization motif and pocket interaction” (Biochemical Journal, 2014)

How the values were obtained:
TRPM6-(1730–end) = molecular target: T1, TRPM6-(1730–end) (Homo sapiens, UniProt Q9BX84); assay: Kinase activation assay (MBP substrate), TRPM6-(1730–end); type: biochemical; details: FLAG-tagged TRPM6-(1730–end) immunoprecipitated from HEK-293; MBP 1 μg, 0.1 mM [γ-32P]ATP, 10 mM MgCl2, 30 min at 30°C; increasing peptide concentrations; read-out: half-maximal activation
T1 construct: expressed in transfected cells; host or cells: HEK-293
T1 sequence (Q9BX84 1730-2022 limits assumed): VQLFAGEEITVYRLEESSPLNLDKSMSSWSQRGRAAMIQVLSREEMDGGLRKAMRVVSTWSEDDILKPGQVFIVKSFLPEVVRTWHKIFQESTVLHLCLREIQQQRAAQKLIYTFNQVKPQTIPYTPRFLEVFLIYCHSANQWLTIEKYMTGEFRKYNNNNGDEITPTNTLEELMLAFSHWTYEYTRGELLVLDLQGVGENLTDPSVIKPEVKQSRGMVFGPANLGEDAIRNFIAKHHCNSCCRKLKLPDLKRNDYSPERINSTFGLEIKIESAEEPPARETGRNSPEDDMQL
Procedure: In assays using E. coli-expressed TRPM6, reactions were set up in a volume of 20 μl, with substrate MBP (myelin basic protein) at 1 μg and kinase at 0.1–10 μg in buffer A containing 0.1% 2-mercaptoethanol, 10 mM MgCl2 and 0.1 mM [γ-^32P]ATP (~1000 cpm·pmol^−1). Assays were carried out for 30 min at 30°C with shaking at 1000 rev./min and terminated by addition of SDS sample buffer. […] Proteins were detected by Coomassie Blue staining and gels were imaged using an Epson scanner and dried completely using a gel dryer (Bio-Rad Laboratories). Incorporation of [γ-^32P]ATP into substrates was analysed by autoradiography using Hyperfilm (GE Healthcare) or quantified by Cerenkov counting.
Figure 2 Identification of dimerization motif residues in TRPM6 (A) Structural model of TRPM7 α-kinase depicting the N-terminal non-catalytic α-helix of one monomer that interacts with the kinase segment of the other monomer. (B) Fluorescence polarization analysis of wild-type (WT) and mutant (Mut) dimerization motif peptides with E. coli-purified GST-tagged TRPM6-(1730–end). […] The samples were analysed by immunoblotting with anti-GST antibody (top panel). […] Proteins were separated by SDS/PAGE, stained with Coomassie Blue (top and middle gels) and MBP phosphorylation was detected by autoradiography (bottom gel). […] The pull-down samples were analysed by immunoblotting with anti-FLAG antibody (top panel). […]

[1] = molecular target: T2, GST-tagged TRPM6-(1730–end) (Homo sapiens, UniProt Q9BX84); assay: Fluorescence polarization binding assay, TRPM6-(1730–end); details: 100 nM labelled peptide, increasing concentrations of TRPM6-(1730–end), pH 7.5, room temperature
T2 construct: E. coli-purified GST-tagged TRPM6-(1730–end); made in house; host or cells: E. coli BL21
T2 sequence (Q9BX84 1730-2022 limits assumed): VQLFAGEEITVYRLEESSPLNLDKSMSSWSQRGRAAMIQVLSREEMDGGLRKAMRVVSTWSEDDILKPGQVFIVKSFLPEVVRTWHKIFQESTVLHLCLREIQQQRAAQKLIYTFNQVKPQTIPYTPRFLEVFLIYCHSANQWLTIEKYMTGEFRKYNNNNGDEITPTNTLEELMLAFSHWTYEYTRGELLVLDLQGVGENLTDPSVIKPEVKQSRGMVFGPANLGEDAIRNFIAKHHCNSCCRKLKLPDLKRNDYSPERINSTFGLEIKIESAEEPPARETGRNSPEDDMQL
Procedure: The peptides used for the assay contained a C-terminal linker leading to the peptides […] (wild-type) and […] (mutant). The peptides were labelled with Lumio Green (Invitrogen) following the manufacturer's protocol. Fluorescence polarization measurements were performed at room temperature in buffer containing 25 mM Tris/HCl (pH 7.5), 200 mM NaCl and 5 mM 2-mercaptoethanol. Binding assays were performed by combining 100 nM labelled peptide with increasing concentrations of TRPM6 kinase, in a total volume of 30 μl of buffer, and end-point polarization measurements were made using the BMG PheraStar plate reader. The polarization values were measured at an excitation wavelength of 485 nm and an emission wavelength of 538 nm, and were corrected for fluorescent probe alone. At least ten data points were measured for each curve, and each data point was measured in duplicate. Data were analysed using GraphPad Prism 5 and curve-fitting of the data from two independent experiments was performed with one-site specific binding with Hill slope [model Y=BmaxX^h/(Kd^h+X^h)] to determine Kd values.
(Figure 2A). We next utilized fluorescence polarization technology, a sensitive method to evaluate interactions between proteins and peptides. […]

[2] = molecular target: T3, GST-tagged TRPM6-(1730–end), E. coli-purified, Q9BX84; assay: fluorescence polarisation; details: chain shown with the change; read at the highest titration point, 2.5 µM TRPM6-(1730-end); parent: est. 94; read off a plot
T3 chain: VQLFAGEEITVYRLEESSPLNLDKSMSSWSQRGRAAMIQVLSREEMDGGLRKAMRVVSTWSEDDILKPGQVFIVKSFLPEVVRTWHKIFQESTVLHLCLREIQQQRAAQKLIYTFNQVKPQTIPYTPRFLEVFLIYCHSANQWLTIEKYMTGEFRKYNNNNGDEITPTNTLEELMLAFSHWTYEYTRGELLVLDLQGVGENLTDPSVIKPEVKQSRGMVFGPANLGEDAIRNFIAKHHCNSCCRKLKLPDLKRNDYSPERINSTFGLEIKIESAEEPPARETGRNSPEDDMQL

Molecule: CC[C@H](C)[C@H](NC(=O)[C@H](C)NC(=O)[C@H](CO)NC(=O)[C@H](Cc1ccc(O)cc1)NC(=O)[C@H](Cc1c[nH]cn1)NC(=O)[C@H](Cc1c[nH]cn1)NC(=O)[C@H](Cc1c[nH]cn1)NC(=O)[C@@H]1CCCN1C(=O)[C@H](CCC(=O)O)NC(=O)[C@H](CCC(N)=O)NC(=O)[C@@H]1CCCN1C(=O)[C@H](CO)NC(=O)[C@H](CCCCN)NC(=O)[C@@H](N)CC(C)C)C(=O)N[C@@H](CCC(=O)O)C(=O)N[C@@H](CCCNC(=N)N)C(=O)N[C@@H](CC(N)=O)C(=O)N[C@@H](CC(N)=O)C(=O)N[C@@H](CC(C)C)C(=O)N[C@@H](CCSC)C(=O)N[C@@H](CCCNC(=N)N)C(=O)N[C@@H](CC(C)C)C(=O)N[C@@H](CO)C(=O)N[C@@H](CCC(N)=O)C(=O)N[C@H](C(=O)N[C@H](C(=O)N1CCC[C@H]1C(=O)N[C@@H](Cc1ccccc1)C(=O)N[C@H](C(=O)N1CCC[C@H]1C(=O)N[C@H](C(=O)N[C@@H](CCC(N)=O)C(=O)N[C@@H](CC(C)C)C(=O)N[C@@H](Cc1ccccc1)C(=O)N[C@@H](C)C(=O)NCC(=O)N[C@@H](CCC(=O)O)C(=O)N[C@@H](CCC(=O)O)C(=O)N[C@H](C(=O)N[C@H](C(=O)N[C@H](C(=O)O)C(C)C)[C@@H](C)O)[C@@H](C)CC)C(C)C)[C@@H](C)O)[C@@H](C)CC)[C@@H](C)O [dimerization motif peptide]
- EC50 (TRPM6-(1730–end)): ~15 µM

Molecule: LKSPQEPHHHYSAIERNNAMRASQTIPFTPVQLFAGEEITVGGCCPGCC [mutant dimerization motif peptide, mutant (L1718A+L1721A) dimerization motif peptide with C-terminal linker, labelled with Lumio Green]
- fluorescence polarization increase (binding) [1]: only background increases in fluorescence polarization were observed

Molecule: LKSPQEPHHHYSAIERNNAMRASQTIPFTPVQLFAGEEITVGGCCPGCC
- response [2]: 24 mP
